In PMC3608651, “A Broad Profile of Co-Dominant Epitopes Shapes the Peripheral Mycobacterium tuberculosis Specific CD8+ T-Cell Immune Response in South African Patients with Active Tuberculosis” (PLoS ONE, 2013):
Read-outs that look alike come from different tables or passages of the source.

Experiments:
Format in all cases: binding
HLA-A*30:02 [1] = target: T1, HLA-A*30:02 (Homo sapiens, UniProt P04439, D101N/D140H/D185E/E176R/F33S/G80R/H175R/K168Q/Q94H/R138E/R41S/V100E); settings: duplicated experiments, positive binder >40%
HLA-A*02:01 [2] = target: T2, HLA-A*02:01 (Homo sapiens, UniProt P04439, D140Y/D185E/D98H/E176V/E277Q/G131W/G231S/I119V/I121R/I166T/I218V/L300P/L318F/N151K/N90K/P208A/P217A/Q86G/Q94H/R138H/R169H/T345S); settings: peptide quantity for 50% binding saturation
HLA-A*30:02 [3] = target: T1, HLA-A*30:02; settings: time points 0-8 h
HLA-A*30:02 [4] = target: T1, HLA-A*30:02
HLA-A*02:01 [5] = target: T2, HLA-A*02:01; settings: plate-bound monomer 0.5 µg/ml, duplicated experiments, positive binder >40%
HLA-A*02:01 [6] = target: T2, HLA-A*02:01; settings: time points 0-8 h; time when 50% of peptide has dissociated
HLA-A*24:02 = HLA-A*24:02 (Homo sapiens, UniProt P04439, D101N/D140Y/D185E/E176V/E190D/F33S/G103R/G107R/I119L/I121M/I306V/K335N/L105A/L180Q/L300P/N151K/N90K/Q86E/Q94H/R106L/R138H/R89G/T104I/T345S/V100E/W191G/Y123F); settings: duplicated experiments, positive binder >40%
HLA-B*58:01 [7] = target: T3, HLA-B*58:01 (Homo sapiens, UniProt P01889, A329T/C349S/D201E/D98Y/E176V/E187L/E204Q/E69T/G107R/I218V/I90N/K202T/L105A/L119I/N104I/N87E/Q89R/Q94S/R106L/R155S/R180L/R86G/S101N/S121R/S35A/S48A/T118I/V127L/V306I/V36M/Y140S/Y91M); settings: duplicated experiments, positive binder >40%
HLA-C*07:01 = HLA-C*07:01 (Homo sapiens, UniProt P10321, K90N/S123Y); settings: duplicated experiments, positive binder >40%
HLA-A*30:01 = HLA-A*30:01 (Homo sapiens, UniProt P04439, D140H/D185E/E176W/F33S/G80R/H175R/K168Q/R138E/R41S); settings: duplicated experiments, positive binder >40%
HLA-A*68:01 [8] = target: T4, HLA-A*68:01 (Homo sapiens, UniProt P04439, A269V/D185E/E176V/E277Q/E87N/F33Y/G231S/I121M/I166T/I218V/L180W/L300P/L318F/N151K/P208A/P217A/Q86R/R169H/T345S); settings: duplicated experiments, positive binder >40%
HLA-B*07:02 = HLA-B*07:02 (Homo sapiens, UniProt P01889); settings: percent relative the binding of positive control peptide […]; duplicated experiments; positive binder >40%
HLA-A*68:01 [9] = target: T4, HLA-A*68:01; settings: time points 0-8 h
HLA-B*58:01 [10] = target: T3, HLA-B*58:01; settings: time points 0-8 h
HLA-B*58:01 [11] = target: T3, HLA-B*58:01
HLA-A*68:01 [12] = target: T4, HLA-A*68:01
[13] = percent relative the binding of positive control peptide […]

SQIMYNYPT [Rv0288_2–10m1]
Bind A*30:02 (HLA-A*30:02 [1]; [13]): 31% | Aff A*02:01 (ED50) (HLA-A*02:01 [2]; […]): 1000 nM | O-rate A*30:02 (t1/2) (HLA-A*30:02 [3]): 0.5 h | Aff A*30:02 (ED50) (HLA-A*30:02 [4]): 4000 nM | Bind A*02:01 (HLA-A*02:01 [5]; [13]): 47% | O-rate A*02:01 (t1/2) (HLA-A*02:01 [6]): 0.7 h

F EW YYQSG L
Bind A*30:02 (HLA-A*30:02 [1]; [13]): 26% | Aff A*02:01 (ED50) (HLA-A*02:01 [2]; […]): 700 nM | Bind A*02:01 (HLA-A*02:01 [5]; [13]): 124% | Bind A*24:02 (HLA-A*24:02; [13]): 37% | Bind B*58:01 (HLA-B*58:01 [7]; [13]): 0% | Bind C*07:01 (HLA-C*07:01; [13]): 15% | O-rate A*02:01 (t1/2) (HLA-A*02:01 [6]): 0.8 h | Bind A*30:01 (HLA-A*30:01; [13]): 10% | Bind A*68:01 (HLA-A*68:01 [8]; [13]): 10% | Bind B*07:02 (HLA-B*07:02): 11%

RDTAEAAKW [Rv0288_86–94]
O-rate A*68:01 (t1/2) (HLA-A*68:01 [9]): 4.3 h | O-rate B*58:01 (t1/2) (HLA-B*58:01 [10]): 2.6 h | Aff B*58:01 (ED50) (HLA-B*58:01 [11]): 5000 nM | Aff A*68:01 (ED50) (HLA-A*68:01 [12]): 10000 nM | Bind B*58:01 (HLA-B*58:01 [7]; [13]): 45% | Bind C*07:01 (HLA-C*07:01; [13]): 0% | Bind A*68:01 (HLA-A*68:01 [8]; [13]): 65%

WQGDTGITY [Rv0288_43–51]
O-rate A*68:01 (t1/2) (HLA-A*68:01 [9]): 6.0 h | O-rate B*58:01 (t1/2) (HLA-B*58:01 [10]): 1.8 h | Aff B*58:01 (ED50) (HLA-B*58:01 [11]): 8000 nM | Aff A*68:01 (ED50) (HLA-A*68:01 [12]): 10000 nM | Bind B*58:01 (HLA-B*58:01 [7]; [13]): 33% | Bind C*07:01 (HLA-C*07:01; [13]): 0% | Bind A*68:01 (HLA-A*68:01 [8]; [13]): 61%

MLDHAGDMA [Rv0288_11–19m1]
Aff A*02:01 (ED50) (HLA-A*02:01 [2]; […]): 60 nM | Bind A*02:01 (HLA-A*02:01 [5]; [13]): 48% | O-rate A*02:01 (t1/2) (HLA-A*02:01 [6]): 1.5 h

AMLDHAGDM [Rv0288_10–18m2]
Bind A*30:02 (HLA-A*30:02 [1]; [13]): 100% | Aff A*02:01 (ED50) (HLA-A*02:01 [2]; […]): 80 nM | O-rate A*30:02 (t1/2) (HLA-A*30:02 [3]): 0.4 h | Aff A*30:02 (ED50) (HLA-A*30:02 [4]): 700 nM | Bind A*02:01 (HLA-A*02:01 [5]; [13]): 47% | Bind A*24:02 (HLA-A*24:02; [13]): 13% | O-rate A*02:01 (t1/2) (HLA-A*02:01 [6]): 1.1 h

KLAAAWGGS [Rv3875_38-46]
Bind A*30:02 (HLA-A*30:02 [1]; percent relative the binding of positive control peptide KIQNFRVYY): 39% | Aff A*02:01 (ED50) (HLA-A*02:01 [2]; peptide titrated 10−4 to 10−9 M): 100 nM | Bind A*02:01 (HLA-A*02:01 [5]; percent relative the binding of positive control peptide FLPSDFFPSV): 57% | Bind A*24:02 (HLA-A*24:02; percent relative the binding of positive control peptide RYLKDQQLL): 33% | Bind B*58:01 (HLA-B*58:01 [7]; percent relative the binding of positive control peptide IAMESIVIW): 21% | Bind C*07:01 (HLA-C*07:01; percent relative the binding of positive control peptide KYFDEHYEY): 11% | O-rate A*02:01 (t1/2) (HLA-A*02:01 [6]): 2 h | Bind A*30:01 (HLA-A*30:01; percent relative the binding of positive control peptide KTKDIVNGL): 0% | Bind A*68:01 (HLA-A*68:01 [8]; percent relative the binding of positive control peptide KTGGPIYKR): 0% | Bind B*07:02 (HLA-B*07:02): 6%

QAWQAQWNQ [Rv0288_52–60]
O-rate A*68:01 (t1/2) (HLA-A*68:01 [9]): 3.0 h | O-rate B*58:01 (t1/2) (HLA-B*58:01 [10]): 0.5 h | Aff B*58:01 (ED50) (HLA-B*58:01 [11]): 4000 nM | Aff A*68:01 (ED50) (HLA-A*68:01 [12]): 7000 nM | Bind B*58:01 (HLA-B*58:01 [7]; [13]): 45% | Bind C*07:01 (HLA-C*07:01; [13]): 0% | Bind A*68:01 (HLA-A*68:01 [8]; [13]): 55%

GLSIVMPVG
Bind A*30:02 (HLA-A*30:02 [1]; [13]): 0% | Aff A*02:01 (ED50) (HLA-A*02:01 [2]; […]): 70 nM | Bind A*02:01 (HLA-A*02:01 [5]; [13]): 100% | Bind A*24:02 (HLA-A*24:02; [13]): 0% | Bind B*58:01 (HLA-B*58:01 [7]; [13]): 0% | Bind C*07:01 (HLA-C*07:01; [13]): 0% | O-rate A*02:01 (t1/2) (HLA-A*02:01 [6]): 2.1 h | Bind A*30:01 (HLA-A*30:01; [13]): 0% | Bind A*68:01 (HLA-A*68:01 [8]; [13]): 0% | Bind B*07:02 (HLA-B*07:02): 0%
